# Data as given in ChEMBL document CHEMBL3885881, “DrugMatrix”.
# Species: Rattus norvegicus
# Assay: DrugMatrix - Regimen: Daily Repeat
# Format: toxicity, organism-based, Sprague-Dawley
# Set-up: regimen Daily Repeat, gender Male, age 6-8 weeks
# Settings: in vivo, iv, vehicle 100 % SALINE; for ABSOLUTE BASOPHIL / ABSOLUTE EOSINOPHIL / ABSOLUTE LYMPHOCYTE / ABSOLUTE MONOCYTE / ABSOLUTE SEGMENTED NEUTROPHIL / BASOPHIL / EOSINOPHIL / ERYTHROCYTE COUNT / HEMATOCRIT / HEMOGLOBIN / LEUKOCYTE COUNT / LYMPHOCYTE / MEAN CORPUSCULAR HEMOGLOBIN / MEAN CORPUSCULAR HEMOGLOBIN CONCENTRATION / MEAN CORPUSCULAR VOLUME / MONOCYTE / NEUTROPHIL / NUCLEATED RED BLOOD CELLS / PLATELET COUNT: tissue Blood; for ALANINE AMINOTRANSFERASE / ALBUMIN / ALKALINE PHOSPHATASE / ASPARTATE AMINOTRANSFERASE / BLOOD UREA NITROGEN / CARBON DIOXIDE / CHLORIDE / CHOLESTEROL / CREATINE PHOSPHOKINASE / CREATININE / GLUCOSE / LACTATE DEHYDROGENASE / LIPASE / PHOSPHORUS / POTASSIUM / SODIUM / TOTAL BILIRUBIN / TOTAL PROTEIN / URIC ACID: tissue Plasma
# [1] = 0 mg/kg, 72 h, dose level Control, time 3 day
# [2] = 0 mg/kg, 120 h, dose level Control, time 5 day
# [3] = 12 mg/kg, 72 h, dose level High, time 3 day
smiles,measurement,setting,value
Cc1c(N)nc([C@H](CC(N)=O)NC[C@H](N)C(N)=O)nc1C(=O)N[C@H](C(=O)N[C@H](C)[C@@H](O)[C@H](C)C(=O)N[C@H](C(=O)NCCc1nc(-c2nc(C(=O)NCCC[S+](C)C)cs2)cs1)[C@@H](C)O)[C@@H](O[C@@H]1O[C@@H](CO)[C@@H](O)[C@H](O)[C@@H]1O[C@H]1O[C@H](CO)[C@@H](O)[C@H](OC(N)=O)[C@@H]1O)c1c[nH]cn1.[Br-] [BLEOMYCIN A2],ABSOLUTE BASOPHIL,[1],0 CELLS/uL
same,ABSOLUTE EOSINOPHIL,[1],33.67 CELLS/uL
same,ABSOLUTE LYMPHOCYTE,[1],12123.5 CELLS/uL
same,ABSOLUTE MONOCYTE,[1],243.5 CELLS/uL
same,ABSOLUTE SEGMENTED NEUTROPHIL,[1],1282.67 CELLS/uL
same,BASOPHIL,[1],0%
same,EOSINOPHIL,[1],0.33%
same,ERYTHROCYTE COUNT,[1],5.18 x10E6/uL
same,HEMATOCRIT,[1],32.63%
same,HEMOGLOBIN,[1],12.87 G/DL
same,LEUKOCYTE COUNT,[1],13.68 x10E3/uL
same,LYMPHOCYTE,[1],88.67%
same,MEAN CORPUSCULAR HEMOGLOBIN,[1],24.98 pg
same,MEAN CORPUSCULAR HEMOGLOBIN CONCENTRATION,[1],39.48 G/DL
same,MEAN CORPUSCULAR VOLUME,[1],63.23 fL
same,MONOCYTE,[1],1.83%
same,NEUTROPHIL,[1],9.17%
same,NUCLEATED RED BLOOD CELLS,[1],0.17 /100WBC
same,PLATELET COUNT,[1],1114.5 x10E3/uL
same,ALANINE AMINOTRANSFERASE,[1],46.17 u/L
same,ALBUMIN,[1],4.15 G/DL
same,ALKALINE PHOSPHATASE,[1],374.67 u/L
same,ASPARTATE AMINOTRANSFERASE,[1],89.33 u/L
same,BLOOD UREA NITROGEN,[1],14.83 mg/dL
same,CARBON DIOXIDE,[1],25.67 mmol/L
same,CHLORIDE,[1],101.17 MEQ/L
same,CHOLESTEROL,[1],63.5 mg/dL
same,CREATINE PHOSPHOKINASE,[1],494.67 u/L
same,CREATININE,[1],0.17 mg/dL
same,GLUCOSE,[1],163 mg/dL
same,LACTATE DEHYDROGENASE,[1],269.33 u/L
same,LIPASE,[1],10.67 u/L
same,PHOSPHORUS,[1],11.27 mg/dL
same,POTASSIUM,[1],5.85 MEQ/L
same,SODIUM,[1],141.68 MEQ/L
same,TOTAL BILIRUBIN,[1],0.18 mg/dL
same,TOTAL PROTEIN,[1],5.87 G/DL
same,URIC ACID,[1],1.28 mg/dL
same,ABSOLUTE BASOPHIL,[2],0 CELLS/uL
same,ABSOLUTE EOSINOPHIL,[2],24.67 CELLS/uL
same,ABSOLUTE LYMPHOCYTE,[2],11832.83 CELLS/uL
same,ABSOLUTE MONOCYTE,[2],279.67 CELLS/uL
same,ABSOLUTE SEGMENTED NEUTROPHIL,[2],1446.17 CELLS/uL
same,BASOPHIL,[2],0%
same,EOSINOPHIL,[2],0.17%
same,ERYTHROCYTE COUNT,[2],5.61 x10E6/uL
same,HEMATOCRIT,[2],35.02%
same,HEMOGLOBIN,[2],13.82 G/DL
same,LEUKOCYTE COUNT,[2],13.58 x10E3/uL
same,LYMPHOCYTE,[2],87.67%
same,MEAN CORPUSCULAR HEMOGLOBIN,[2],24.68 pg
same,MEAN CORPUSCULAR HEMOGLOBIN CONCENTRATION,[2],39.5 G/DL
same,MEAN CORPUSCULAR VOLUME,[2],62.42 fL
same,MONOCYTE,[2],2%
same,NEUTROPHIL,[2],10.17%
same,NUCLEATED RED BLOOD CELLS,[2],0 /100WBC
same,PLATELET COUNT,[2],1178.17 x10E3/uL
same,ALANINE AMINOTRANSFERASE,[2],52.83 u/L
same,ALBUMIN,[2],4.12 G/DL
same,ALKALINE PHOSPHATASE,[2],370 u/L
same,ASPARTATE AMINOTRANSFERASE,[2],100.5 u/L
same,BLOOD UREA NITROGEN,[2],15.17 mg/dL
same,CARBON DIOXIDE,[2],28.83 mmol/L
same,CHLORIDE,[2],101 MEQ/L
same,CHOLESTEROL,[2],69.5 mg/dL
same,CREATINE PHOSPHOKINASE,[2],488.67 u/L
same,CREATININE,[2],0.23 mg/dL
same,GLUCOSE,[2],165 mg/dL
same,LACTATE DEHYDROGENASE,[2],502.17 u/L
same,LIPASE,[2],11 u/L
same,PHOSPHORUS,[2],11.7 mg/dL
same,POTASSIUM,[2],5.85 MEQ/L
same,SODIUM,[2],142.45 MEQ/L
same,TOTAL BILIRUBIN,[2],0.18 mg/dL
same,TOTAL PROTEIN,[2],5.85 G/DL
same,URIC ACID,[2],1.43 mg/dL
same,ABSOLUTE BASOPHIL,[3],0 CELLS/uL
same,ABSOLUTE EOSINOPHIL,[3],0 CELLS/uL
same,ABSOLUTE LYMPHOCYTE,[3],10537 CELLS/uL
same,ABSOLUTE MONOCYTE,[3],346.67 CELLS/uL
same,ABSOLUTE SEGMENTED NEUTROPHIL,[3],2083 CELLS/uL
same,BASOPHIL,[3],0%
same,EOSINOPHIL,[3],0%
same,ERYTHROCYTE COUNT,[3],6.18 x10E6/uL
same,HEMATOCRIT,[3],38.57%
same,HEMOGLOBIN,[3],15.13 G/DL
same,LEUKOCYTE COUNT,[3],12.97 x10E3/uL
same,LYMPHOCYTE,[3],81.67%
same,MEAN CORPUSCULAR HEMOGLOBIN,[3],24.5 pg
same,MEAN CORPUSCULAR HEMOGLOBIN CONCENTRATION,[3],39.23 G/DL
same,MEAN CORPUSCULAR VOLUME,[3],62.37 fL
same,MONOCYTE,[3],2.67%
same,NEUTROPHIL,[3],15.67%
same,NUCLEATED RED BLOOD CELLS,[3],0 /100WBC
same,PLATELET COUNT,[3],1055.67 x10E3/uL
same,ALANINE AMINOTRANSFERASE,[3],38 u/L
same,ALBUMIN,[3],3.8 G/DL
same,ALKALINE PHOSPHATASE,[3],233.67 u/L
same,ASPARTATE AMINOTRANSFERASE,[3],110 u/L
same,BLOOD UREA NITROGEN,[3],10.33 mg/dL
same,CARBON DIOXIDE,[3],27.67 mmol/L
same,CHLORIDE,[3],100.33 MEQ/L
same,CHOLESTEROL,[3],56.33 mg/dL
same,CREATINE PHOSPHOKINASE,[3],923.67 u/L
same,CREATININE,[3],0.12 mg/dL
same,GLUCOSE,[3],136.67 mg/dL
same,LACTATE DEHYDROGENASE,[3],439.67 u/L
same,LIPASE,[3],9.67 u/L
same,PHOSPHORUS,[3],10.5 mg/dL
same,POTASSIUM,[3],5.86 MEQ/L
same,SODIUM,[3],140.77 MEQ/L
same,TOTAL BILIRUBIN,[3],0.13 mg/dL
same,TOTAL PROTEIN,[3],5.47 G/DL
same,URIC ACID,[3],1.3 mg/dL
